The numbers were not newly measured in US8637495B2, “Osteoarthritis diet formulations” (Nestec S.A., priority 2004, dated 2014), which cites them from elsewhere.

In data set [1] the test system is human patients with OA of the knee.
The conditions of data set [2]: orally administered.

As for `N[C@H]1C(O)O[C@H](CO)[C@@H](O)[C@@H]1O` (some centres unmarked) [glucosamine, Glucosamine], the “clinical signs of OA” value in data set [1] (1500 mg glucosamine per day, human, OA of the knee) was “significant improvement”. Besides, the “long-term progression of OA” value in data set [1] (oral, two studies, patients followed for three years) is “efficiently inhibited”. In addition, in data set [2], the “radiolabel detected in exhaled CO2” value is recorded as 70% and the retained in tissue entry is reported as “approximately 10%”. For the same compound, in data set [2] (physiologic pH of the small intestine), the fraction non-ionized result is recorded as “More than 50%”.
